# Where two headings read alike, the source gives them in different places.
# Molecular target: T1, CYP2B6 (Homo sapiens, UniProt P20813)
# T1 construct: pooled mixed-gender human liver microsomes; from tissue; host or cells: pooled mixed-gender human liver microsomes
# T1 sequence (P20813 1-491): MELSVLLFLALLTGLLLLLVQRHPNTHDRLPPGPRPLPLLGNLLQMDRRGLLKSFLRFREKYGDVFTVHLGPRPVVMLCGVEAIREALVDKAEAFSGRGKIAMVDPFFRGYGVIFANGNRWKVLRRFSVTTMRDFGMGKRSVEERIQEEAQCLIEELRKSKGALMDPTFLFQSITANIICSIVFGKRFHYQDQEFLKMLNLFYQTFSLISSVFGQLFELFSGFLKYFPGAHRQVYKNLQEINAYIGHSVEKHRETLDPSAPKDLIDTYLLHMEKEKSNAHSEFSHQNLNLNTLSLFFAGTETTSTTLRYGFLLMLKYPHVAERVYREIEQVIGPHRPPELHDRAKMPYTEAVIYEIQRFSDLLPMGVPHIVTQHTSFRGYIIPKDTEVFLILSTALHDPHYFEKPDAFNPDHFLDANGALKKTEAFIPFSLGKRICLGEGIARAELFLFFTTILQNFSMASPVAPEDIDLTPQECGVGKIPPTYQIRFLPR
# Assay: CYP2B6 inhibition in pooled human liver microsomes
# Format: in vitro ADME
# Settings: Efavirenz 8-hydroxylation; for inhibition at 49.5 µM: both sexes, human, pooled human liver microsomes, probe efavirenz
# Procedure: The potential of tepotinib and MSC2571109A to inhibit CYP450 enzymes CYP1A2, 2A6, 2B6, 2C8, 2C9, 2C19, 2D6, 2E1, and 3A4/5 in vitro was evaluated using CYP-catalyzed reactions in pooled mixed-gender human liver microsomes using specific substrates and liquid chromatography/tandem mass spectrometry (LC–MS/MS) readouts. […] Testosterone 6β-hydroxylation was assessed in the MSC2571109A study. Assessments of mechanism-based inhibition of the above listed CYP450 enzymes were conducted after pre-incubation of the microsomes with tepotinib or MSC2571109A. A brief summary of the incubation methods, including details of substrates used for the other CYP enzymes (which are not pertinent to this article) are presented in Online Resource 1. The LC–MS/MS-based methods used were consistent with those previously described in the literature.
structure (smiles),measurement,setting,value
CN1CCC(COc2cnc(-c3cccc(Cn4nc(-c5cccc(C#N)c5)ccc4=O)c3)nc2)CC1 [tepotinib],Potential for time-dependent inhibition,,Little or No
same,IC50,"30-min preincubation, read-out: Time-dependent inhibition IC50",44 µM
same,inhibition at 49.5 µM,"30-min preincubation, read-out: Time-dependent inhibition, maximum inhibition at 49.5 µM",52%
same,inhibition at 49.5 µM,"zero-minute preincubation, read-out: Direct inhibition, maximum inhibition at 49.5 µM",34%
same,IC50,"human liver microsomes, zero-minute preincubation, read-out: Direct inhibition IC50",> 49.5 µM

# — article PMC10447267, “Assessment of the potential of the MET inhibitor tepotinib to affect the pharmacokinetics of CYP3A4 and P-gp substrates” (Investigational New Drugs, 2023)
